# Earlier results in US8853275B2, “Concurrent therapy regime/regimen for the treatment of acne related diseases” (Galderma Research & Development, priority 2008, dated 2014).
# Details: when combined with BPO; unlike tretinoin
compound,measurement,value
"COc1ccc(-c2ccc3cc(C(=O)O)ccc3c2)cc1C12CC3CC(CC(C3)C1)C2 [Adapalene, 6-[3-(1-adamantyl)-4-methoxyphenyl]-2-naphtoïc acid]",Stability in the presence of light,stable in the presence of light
